# Experimental data: US20030212052A1, “Use of ursdeoxycholic acid for potentiation of the phototoxic effect of photodynamic therapy” (priority 2003, published 2003)
# Assays:
# hepatoma cell line = assay: Promotion of PDT efficacy with lysosomal sensitizer in the hepatoma cell line; type: cell-based, murine; conditions: lysosomal sensitizer Npe6, hepatoma cell line
# Description: Cell lines. Studies have been carried out with the murine leukemia L1210 and murine hepatoma hepa 1c1c7 cell lines along with primary rat hepatocyte cultures. Except for the latter, cells are grown in tissue culture. The L1210 cell line is grown in suspension culture in Fischer's medium containing 10% horse serum. The murine hepatoma 1c1c7 cell line was obtained from Dr. J. Whitlock, Jr. (Stanford University, CA). Cells were cultured on either commercially available plastic tissue cutureware, or poly-L-lysine coated glass coverslips or discs, and grown at 37° C. in a-minimal essential medium (aMEM) containing 5% fetal bovine serum and antibiotics. Cultures were passaged by incubation with a trypsin+EDTA solution (0.25% trypsin, 1 mM EDTA in Hank's Balanced Salts Solution). Determination of PDT efficacy. […] The cells were then lysed and levels of caspase-3 activity are assessed using a fluorescent plate reader. […] These substrates were cleaved by caspase-3 to form fluorescent products that were then detected. The plate readers take periodic readings of the emerging fluorescence, permitting a rate to be assessed. […] Protein levels in the lysates were also determined, so that the net result was in terms of caspase-3 activity per mg protein per minute. Photokilling was assessed by clonogenic assays involving the plating of known numbers of cells. […]
# [1] = tested on: murine hepatoma 1c1c7 cell line; assay: Photokilling assessed by clonogenic assay after SnET2 PDT; type: cell-based; conditions: for number of colonies: irradiation 270 mJ/cm^2 at 630-700 nm, colonies counted four days later, mean±SD of 3-4 plates
# Description: Cell lines. Studies have been carried out with the murine leukemia L1210 and murine hepatoma hepa 1c1c7 cell lines along with primary rat hepatocyte cultures. Except for the latter, cells are grown in tissue culture. The L1210 cell line is grown in suspension culture in Fischer's medium containing 10% horse serum. The murine hepatoma 1c1c7 cell line was obtained from Dr. J. Whitlock, Jr. (Stanford University, CA). Cells were cultured on either commercially available plastic tissue cutureware, or poly-L-lysine coated glass coverslips or discs, and grown at 37° C. in a-minimal essential medium (aMEM) containing 5% fetal bovine serum and antibiotics. Cultures were passaged by incubation with a trypsin+EDTA solution (0.25% trypsin, 1 mM EDTA in Hank's Balanced Salts Solution). Photokilling was assessed by clonogenic assays involving the plating of known numbers of cells. After several days in cell culture, the number of resulting colonies reflected the number of viable cells that survive PDT. Freshly prepared suspensions of 1c1c7 cells were plated in 60 mm culture dishes at a density of 500 cells/dish. Approximately 18 hours later cultures were treated with PDT sensitizer and/or UDCA. After 30 minutes of incubation culture dishes were washed once with complete medium and then refed with complete medium. Refed cultures were subsequently irradiated and returned to incubators. Cultures were refed every third day, and stained with crystal violet once colonies were of sufficient size to score. […] After irradiation of 270 mJ/cm^2 at 630-700 nm, the plates were incubated and the colonies were counted four days later. The data represents the mean±a standard deviation of three to four plates.
# [2] = cited from earlier work
# [3] = cited from earlier work; remark: listed apart in the source
# [4] = UDCA analogs/conjugates
smiles,measurement,setting,value
C=Cc1c(C)c2cc3nc(c(CC(=O)N[C@@H](CC(=O)[O-])C(=O)[O-])c4nc(cc5[nH]c(cc1[nH]2)c(C)c5CC)C(C)=C4C(=O)[O-])[C@@H](CCC(=O)[O-])[C@@H]3C.[Na+].[Na+].[Na+].[Na+] [Npe6],promotion of photodynamic therapy efficacy by the potentiator,hepatoma cell line,no evidence of promotion
"C[C@H](CCC(=O)O)[C@H]1CC[C@H]2[C@@H]3[C@@H](O)C[C@@H]4C[C@H](O)CC[C@]4(C)[C@H]3CC[C@]12C [UDCA, ursodeoxycholic acid]",number of colonies,[1]; UDCA 10 micromoles + SnET2 (2-mM),12±5 colonies
same,colonies as percent,[1]; UDCA 10 micromoles + SnET2 PDT,20%
same,number of colonies,[1]; UDCA 100 micromoles + SnET2 (2-mM),1±0.7 colonies
same,colonies as percent,[1]; UDCA 100 micromoles + SnET2 PDT,1.3%
same,solubility in chloraform,[2]; chloraform,slightly soluble
same,solubility in ethanol and glacial acetic acid,[2]; ethanol and glacial acetic acid,freely soluble
same,solubility in ether,[2]; ether,sparingly soluble
same,solubility in water,[2]; water,practically insoluble
same,hepatic extraction,"[3]; once absorbed after oral administration, absence of liver disease",about 50%
same,absorption after oral administration,"[3]; oral administration, passive diffusion",incomplete
C[C@H](CCC(=O)NCC(=O)O)[C@H]1CC[C@H]2[C@@H]3[C@@H](O)C[C@@H]4C[C@H](O)CC[C@]4(C)[C@H]3CC[C@]12C [UDCA-glycine],promotion of photodynamic therapeutic photokilling,[4],effective
C[C@H](CCC(=O)NCCS(=O)(=O)O)[C@H]1CC[C@H]2[C@@H]3[C@@H](O)C[C@@H]4C[C@H](O)CC[C@]4(C)[C@H]3CC[C@]12C [UDCA-taurine],promotion of photodynamic therapeutic photokilling,[4],effective
